In patent publication US20230145643A1, “AGENTS FOR USE IN THE THERAPEUTIC OR PROPHYLACTIC TREATMENT OF RETINAL PIGMENT EPITHELIUM ASSOCIATED DISEASES” (priority 2020, published 2023):
“And” between values parts separate entries of the source, which are not always exact repeats. Equal entries are not always repeated. Where two headings read alike, the source gives them in different places.

What was measured:
[1] = tested on: guinea pig eyes; experiment: Toxicity test of intravitreally administered amphiregulin (guinea pigs); format: in vivo
Experimental: Methods and Material: Two to three-week old guinea pigs were divided into four groups:
animals that received an intravitreal administration of amphiregulin (dose: 10 ng in 5 μl) into one eye and an intravitreal administration of vehicle into the contralateral eye (n=4),
animals that received an intravitreal administration of amphiregulin (dose: 10 ng in 5 μl) into both eyes (n=4),
an animal that received intravitreal administration of amphiregulin (dose: 10 ng in 5 μl) into one eye with the contralateral eye left untreated (n=1), and
animals with both eyes left intact (n=2).
All animals were treated in accordance with the ARVO (association for Research in Vision and Ophthalmology) Statement for the Use of Animals in Ophthalmic and Vision Research and the EC Directive 86/609/EEC for animal experiments. The animals were housed at a constant temperature (22±1° C.) and in a light-controlled environment (lights on from 7 am to 7 pm) with ad libitum access to food and water.
All animals with injections received two intravitreal injections at an interval of ten days.
At each time point, the eyes were inspected for signs of toxicity. Ten days after the second injection, the animals were sacrificed by an overdose of anesthetics. Ocular biometry was performed at baseline, prior to each injection, and prior to the sacrifice of animals. The sonographic ocular biometry was performed using Aviso, The Ultrasound Platform (Quantel Medical, France) under general anesthesia, on the follow-up days 15, 25, 35 and prior the sacrifice on day 45.
After the sacrifice, the eyes of the animals were removed, post-fixed overnight in 4% paraformaldehyde, and embedded in optimal cutting temperature compound, cryosectioned and immunostained against glial activation marker (glial fibrillary acidic protein), microglial cell marker (lba-1), native guinea pig amphiregulin, and injected amphiregulin; or they were embedded in paraffin, sectioned and stained with hematoxylin and eosin for general histologic examination and histomorphometric retinal thickness measurements. In addition, the tissue was stained for apoptotic cell death detection applying the TUNEL method.

[2] = tested on: bovine RPE cell; conditions: bovine RPE cells after incubation with growth factor; cited from earlier work
[3] = tested on: bovine RPE cell; conditions: bovine RPE cells; cited from earlier work
[4] = tested on: EGFR; experiment: EGFR signaling via the PI3K/Akt pathway in RPE culture; format: cell-based; conditions: addition of EGF
[5] = tested on: eye of patient with geographic atrophy; format: in vivo, human; conditions: for foveolar zone thickness upon optical coherence tomography: 69 μm at baseline
Description: Optical coherence tomography images of the fundus signs were unchanged. • On the 7th day after the injection, the eye appeared to be untouched, the conjunctival injection had subsided. Visual acuity had improved from 0.03 before the injection to 0.1. […] Upon optical coherence tomography, the foveolar zone increased in thickness from 69 μm at baseline to 71 μm at seven days after the injection, and to 73 μm two weeks later (FIGS. 3a, b).

[6] = tested on: EGF-EGFR-MAPK signal transduction pathway; conditions: human RPE cells in culture; concentration-dependent manner; cited from earlier work
[7] = tested on: ARPE-19 cell line; experiment: RPE cell proliferation (scanning spectrophotometer); format: cell-based, human; conditions: dose-dependent; EGF 0.1, 10, 100 μg/L; EGF antibody 0.01, 1.0, 10 mg/L; PBS control
Experimental: (§1) Materials and Methods: The human ARPE-19 cell line was cultured in a standardized culture medium and incubated at 37° C. under 5% CO2. […] We examined the RPE cell proliferation using of a scanning spectrophotometer. In a second step, we examined the cell migration by a scratch assay.

[8] = tested on: eyes of AMD patients (geographic atrophy); experiment: Series of seven AMD patients treated with intravitreal EGF; format: in vivo, human
Description: A series of seven patients were consecutively treated. […] The patients underwent weekly to two-weekly ophthalmological follow-up examinations. Three patients (patients #1, 2, and 3) received a repeated intravitreal injection after an interval of three to four weeks.

[9] = tested on: ARPE-19 cell line; experiment: RPE cell migration (scratch assay); format: cell-based, human; conditions: dose-dependent; EGF 0.1, 10, 100 μg/L; EGF antibody 0.01, 1.0, 10 mg/L; PBS control
Experimental: as §1

[10] = tested on: adult rabbits' eyes; experiment: Toxicity test of intravitreally administered EGF (rabbits); format: in vivo, rabbit; conditions: for Intraocular pressure (IOP): injected right eye (OD), 100 ng EGF intravitreal
Experimental: The injections were performed in the upper right quadrant of the eyes in a distance of 3-4 mm from the limbus. At baseline of the study, and at specific dates after the injection the animals were examined using photography of the external eye and anterior and posterior segment of the eye, tonometry, optical coherence tomography (OCT) of the posterior fundus, and fundus photography. Four weeks after a third injection, the animals were sacrificed and the globes were histomorphometrically examined.
After sacrificing the animals, the eyes were enucleated, immediately fixed in a solution of 1% glutaraldehyde and 4% formaldehyde, and kept in that solution for seven days at room temperature. The sagittal, vertical and horizontal globe diameter were subsequently measured. A central segment with a thickness of about 8 mm and running through the optic nerve head and the pupil was cut out of the fixed globes, dehydrated in alcohol, imbedded in paraffin, sectioned for light microscopy with a slide thickness of 4-6 μm, and stained with hematoxylin eosin.
The cell number in the three retinal layers containing cell nuclei was counted. The slides for apoptotic cell death were additionally stained using the TUNEL (terminal deoxynucleotidyl transferase dUTP nick end labeling) technique.

[11] = tested on: RPE D407 cells; conditions: through both PI3K and ERK/MAPK pathways; cited from earlier work
[12] = injected eyes vs eyes injected with PBS or untouched eyes
[13] = 0.75 μg EGF intravitreal, one line per patient (1-7)
[14] = after the repeated intravitreal injections

## Amphiregulin
[1]; four groups, 10 ng in 5 μl intravitreal, two injections at ten days interval
  animal weight: did not differ in their weight at any time point analyzed
[1]; [12]
  TUNEL positive cell numbers: No significant increase
  microglial infiltration: No significant increase
  retinal gliosis: No significant increase
[1]; repeatedly intravitreally applied, guinea pigs (summary)
  intraocular inflammatory or toxic effect: did not result in an intraocular inflammatory or toxic effect

## acidic fibroblast growth factor [aFGF]
[2]
  RPE cell migration: significantly enhanced
[3]
  RPE cell DNA synthesis: stimulated

## basic fibroblast growth factor [bFGF]
[2]
  RPE cell migration: significantly enhanced
[3]
  RPE cell DNA synthesis: stimulated

## epidermal growth factor [EGF]
[4]
  EGFR signaling via the PI3K/Akt pathway: caused an increase
[5]; 7th day after the injection
  subjective vision: marked improvement in vision
[5]; 7th day after the injection, 0.03 before the injection
  Visual acuity: 0.1
[5]; after injection, central four measurement points, 11.3 dB before
  light differential sensitivity in the central zone (computer perimetry): 24.8 dB per measurement point
[5]; human, in vivo
  Intraocular Pressure: unchanged within normal limits
  conjunctival injection: had subsided
  finding on the surface of the eye: mixed moderate conjunctival injection
  pathological reactions of the anterior segment of the eye: no pathological reactions
[5]; seven days after the injection
  foveolar zone thickness upon optical coherence tomography: 71 μm
[5]; third day after injection
  central visual acuity: unchanged
  optical coherence tomography images of the fundus: unchanged
  peripheral vision: remained unchanged
  subjective vision (metamorphopsias): the distortions and curvatures of objects (metamorphopsias) disappeared
[5]; two weeks later
  foveolar zone thickness upon optical coherence tomography: 73 μm
[6]
  EGF-EGFR-MAPK signal transduction pathway induction: induces the EGF-EGFR-MAPK (mitogen-activated protein kinase) signal transduction pathway
[2]
  RPE cell migration: significantly enhanced
[3]
  RPE cell DNA synthesis: stimulated
[7]
  ARPE-19 cell proliferation: increased with higher concentrations
[8]; 0.75 μg EGF in 50 μl intravitreal, one line per patient (1-7), follow-up one to seven weeks
  Visual Acuity (Decimal) at last examination: 0.09 and 0.03 and 0.06 and 0.1 (2×) and 0.08 and 0.05
[8]; [13]
  Intraocular Pressure: 17 mmHg and 16 mmHg
  Quality of vision: Improved
[8]; 0.75 μg EGF intravitreal, one line per patient (1-7), last examination vs before injection
  Improvement in ETDRS letters: 3 ETDRS letters and 8 ETDRS letters and 9 ETDRS letters and 26 ETDRS letters and 6 ETDRS letters and 11 ETDRS letters and 0 ETDRS letters
[8]; besides conjunctival vessel dilatation or circumscribed subconjunctival hemorrhage at the site of the injection
  side effects: no other side effects were noted
[8]; none of the eyes beyond this value
  intraocular pressure after injection, upper bound in all eyes: ≤ 21 mmHg
[8]; out of seven patients, follow-up one week to seven weeks
  patients with improvement in measured visual acuity: six showed an improvement in their measured visual acuity
[8]; patients with geographic atrophy, intravitreal application (summary of Examples 1 and 2)
  visual function and macular morphology: improvement in visual function and macular morphology
[8]; patients, intravitreal application (summary statement)
  intraocular tolerability: well tolerated intraocularly without signs of intraocular inflammation or toxicity
[8]; seven patients
  cells in the anterior chamber fluid or vitreous cavity (slit lamp-based biomicroscopy): In none of the eyes
  central visual field (perimetry): also improved
  hemorrhages or other newly developed pathologies in the retina: none of the eyes revealed hemorrhages or other newly developed pathologies in the retina
  signs of intraocular inflammation, lens opacification, optic media clarity, intraocular pressure change: no signs of intraocular inflammation, lens opacification, changes in the clarity of the optic media, or any significant change in intraocular pressure
  thickness of the tissue in the foveolar region (fundus examination, OCT): tendency of an increase
[9]
  ARPE-19 cell migration: increased with higher concentrations
[10]; [14]
  change in intraocular pressure (IOP) as measured by tonometry: No significant change
  change in retinal thickness as measured by OCT: No significant change
[10]; 5 Dec. 2018
  Intraocular pressure (IOP): 6 mmHg
[10]; 29 Dec. 2018
  Intraocular pressure (IOP): 8 mmHg
[10]; injected vs contralateral eyes, posterior pole, midpoint, equator, ora serrata region, all P-values>0.20
  cell count of the retinal layers (histomorphometry): did not differ significantly
[10]; rabbit eyes
  apoptotic cells in TUNEL staining: neither in the right eyes or in the left eyes, apoptotic cells were detected
[10]; rabbits, repeated intravitreal injections
  intravital examinations of the external eye and the anterior segment (toxicity, cataract): did not reveal any sign of toxicity or development of cataract
[10]; repeatedly intravitreally applied, rabbits (summary)
  intraocular inflammatory or toxic effect: did not result in an intraocular inflammatory or toxic effect
[11]
  survival of RPE D407 cells: stimulated survival of RPE D407 cells

## insulin-like growth factor-1 [IGF-1]
[2]
  RPE cell migration: significantly enhanced

## platelet-derived growth factor [PDGF]
[2]
  RPE cell migration: significantly enhanced
[3]
  RPE cell DNA synthesis: stimulated
